Results as given in ChEMBL document CHEMBL1140489, “New biologically active epidioxysterols from Stereum hirsutum” (2007).
≈ marks a conversion by molar mass, not a printed value.

How the values were obtained:
Type in all cases: functional
[1] = test system: Mycobacterium tuberculosis; experiment: Antibacterial activity against Mycobacterium tuberculosis H37Rv by microdilution resazurin assay
Staphylococcus aureus = experiment: Antibacterial activity against staphylococcus aureus ATCC 25923
Escherichia coli = experiment: Antibacterial activity against Escherichia coli ATCC […]
Pseudomonas aeruginosa = experiment: Antibacterial activity against Pseudomonas aeruginosa ATCC 27753
Candida = experiment: Antifungal activity against Candida sp.

SMILES	MIC [1] [µg/mL]	MIC (Staphylococcus aureus) [µg/mL]	MIC (Escherichia coli) [µg/mL]	MIC (Pseudomonas aeruginosa) [µg/mL]	MIC (Candida) [µg/mL]
CC(C)C/C=C/[C@@H](C)[C@H]1CC[C@@H]2[C@]1(C)CC=C1[C@]23C=C[C@]2(C[C@@H](O)CC[C@]12C)OO3	16 (≈ 38.8 µM)	> 512	> 512	> 512	> 512
Cn1c([N+](=O)[O-])cnc1C#Cc1ccnc(N)n1	16 (≈ 65.5 µM)	> 512	> 512	> 512	> 512
CC[C@@H](/C=C/[C@@H](C)[C@H]1CC[C@@H]2[C@]1(C)CC[C@H]1[C@]23C=C[C@]2(C[C@@H](O)CC[C@]12C)OO3)C(C)C	64 (≈ 145 µM)	> 512	> 512	> 512	> 512
CC(C)[C@@H](C)/C=C/[C@@H](C)[C@H]1CC[C@@H]2[C@]1(C)CC=C1[C@]23C=C[C@]2(C[C@@H](O)CC[C@]12C)OO3	16 (≈ 37.5 µM)	> 512	> 512	> 512	> 512
O=C(O)c1cn(C2CC2)c2cc(N3CCNCC3)c(F)cc2c1=O [CIPROFLOXACIN]	0.5 (≈ 1.51 µM)	0.5 (≈ 1.51 µM)	–	1 (≈ 3.02 µM)	–
CC(C)[C@@H](C)/C=C/[C@@H](C)[C@H]1CC[C@@H]2[C@]1(C)CC[C@H]1[C@]23C=C[C@]2(C[C@@H](O)CC[C@]12C)OO3 [ERGOSTEROL PEROXIDE]	64 (≈ 149 µM)	> 512	> 512	> 512	> 512
Clc1ccc(COC(Cn2ccnc2)c2ccc(Cl)cc2Cl)c(Cl)c1 (centres undefined) [MICONAZOLE]	–	–	–	–	0.25 (≈ 0.601 µM)
